Data: patent publication US20110077270A1, “Compositions and Methods for Treating Ocular Inflammation with Lower Risk of Increased Intraocular Pressure” (priority 2009, published 2011)
Several values for one entry are separate records, joined by “and”; a condition that tells them apart may be missing. Identical values can stand only once.

Experiments:
Assay type in all cases: in vivo
[1] = system: MPO activity in iris-ciliary body; test: Myeloperoxidase (MPO) activity in iris-ciliary body, rabbit paracentesis model; conditions: for MPO Unit/g: iris-ciliary body samples collected after the second paracentesis, individual eye samples; for MPO activity in iris-ciliary body, Mean: after second paracentesis, group mean
Protocol: (§1) Each rabbit was placed in a restraint device and tagged with the alphanumeric code. The formulations were instilled (50 μl) into the conjunctival sac of both eyes 180, 120, 90 and 30 min before the first paracentesis; then 15, 30, 90 min after the first paracentesis. To perform the first paracentesis the animals were anaesthetized by intravenous injection of 5 mg/kg Zoletil® (Virbac; 2.5 mg/kg tiletamine HCl and 2.5 mg/kg zolazepam HCl) and one drop of local anesthetic (Novesina®, Novartis) was administered to the eye. Anterior chamber paracentesis was performed with a 26 G needle attached to a tuberculin syringe; the needle was introduced into the anterior chamber through the cornea, taking care not to damage the tissues. Two hours after the first paracentesis, the animals were sacrificed with 0.4 ml Tanax® (Intervet International B.V.) and the second paracentesis was performed. About 100 μl of aqueous humor were removed at the second paracentesis. Aqueous humor was immediately split in four aliquots and stored at −80° C. until analysis. Then both eyes were enucleated and the iris-ciliary body was carefully excised, placed in polypropylene tubes, and stored at −80° C. until analysis.
The activity of MPO was measured as previously described by Williams et al.[5] The iris-ciliary bodies were carefully dried, weighed and immersed in 1 ml of hexa-decyl-trimethyl-ammonium bromide solution. Then, the samples were sonicated for 10 sec on ice by a ultrasound homogenizer (HD 2070, Bandelin electronic), freeze-thawed three times, sonicated for 10 sec and centrifuged at 14,000 g for 10 min to remove cellular debris. An aliquot of the supernatant ([…] was diluted to 3 ml with the o-dianisidine 2HCl/H2O2 solution. The change in absorbance at 460 nm was continuously monitored for 5 min by a spectrophotometer (UV/Vis Spectrometer Lambda EZ 201; Perkin Elmer). The slope of the line (Δ/min) was determined for each sample and used to calculate the number of units of MPO in the tissue as follows:
were ε=11.3 mM^−1. Values were expressed as units of MPO/g of tissue.

[2] = system: rabbit paracentesis model; test: Pupillary diameter measurement, rabbit paracentesis model; conditions: individual eye; for Pupillary diameter T1: −180 min: 50 μl drops, basal; for Pupillary diameter T2: −5 min: 5 min before first paracentesis; for Pupillary diameter T3: +115 min: 5 min before second paracentesis; for Pupillary diameter Δ(T3 − T1): +115 min minus −180 min
Protocol: as §1
The pupillary diameter of both eyes was measured with a Castroviejo caliper 180 min and 5 min before the first paracentesis and 5 min before the second paracentesis.

[3] = system: protein concentration in the aqueous humor; test: Protein measurement in aqueous humor, rabbit paracentesis model; conditions: second paracentesis; for Protein level in aqueous humor, Mean: group mean; for Protein level in aqueous humor: individual eye
Protocol: as §1
For protein concentration determination in the aqueous humor we used the Protein Quantification Kit (Fluka; Cat. No. 77371; Lot. No. 1303129). Five microliters of aqueous humor were diluted to 100 μl with water. Twenty microliters of samples and of standards were load into a 96-well plate and recorded in a plate layout. Samples were treated following the assay procedure described in the kit. A microplate reader (GDV, Italy; model DV 990 B/V6) set at 670 nm was used for making the calibration and analyzing the samples.

[4] = system: rabbit paracentesis model; test: Clinical evaluation (slit lamp clinical score), rabbit paracentesis model; design: key to Clinical Score −180 min / Clinical Score −5 min / Clinical Score +115 min: 0: normal; 1: discrete dilatation of iris and conjunctival vessels; 2: moderate dilatation of iris and conjunctival vessels; 3: intense iridal hyperemia with flare in the anterior chamber; 4: intense iridal hyperemia with flare in the anterior chamber and presence of fibrinous exudates; conditions: for Clinical Score −5 min: 5 min before first paracentesis; for Clinical Score −5 min / Clinical Score +115 min / Clinical Score −180 min: individual eye; for Clinical Score +115 min: 5 min before second paracentesis; for Clinical Score −180 min: basal
[5] = system: leukocytes (PMN) in aqueous humor; test: Leukocytes (PMN) measurement in aqueous humor, rabbit paracentesis model; conditions: second paracentesis; for PMN numbers in aqueous humor: individual eye
Protocol: as §1
For the determination of the number of leukocytes we used a haemocytometer (Improved Neubauer Chamber; Bright-line, Hausser Scientific) and a Polyvar 2 microscope (Reichert-Jung).

[6] = system: PGE2 in the aqueous humor; test: Prostaglandin E2 (PGE2) measurement in aqueous humor, rabbit paracentesis model; conditions: second paracentesis; for PGE2 level in aqueous humor, Mean: group mean; for PGE2 level in aqueous humor: individual eye
Protocol: as §1
For the quantitative determination of PGE2 in the aqueous humor we used the PGE2 Immunoassay kit (R&D Systems; Cat. No. KGE004; Lot. No. 240010). Eleven microliters or 16 μl of aqueous humor were diluted to 110 μl or 160 μl with the calibrator diluent solution provided with the kit. One hundred microliters of samples and of standards were load into a 96-well plate and recorded in a plate layout. Samples were treated following the assay procedure described in the kit. A microplate reader (GDV, Italy; model DV 990 B/V6) set at 450 nm (wavelength correction at 540 nm) was used for making the calibration and analyzing the samples.

[7] = 0.5% topical formulation, +115 min

CC(C(=O)O)c1ccc(-c2ccccc2)c(F)c1 (centres unmarked) [F, flurbiprofen, reference compound]
MPO Unit/g ([1]; 0.03% F): 1.10 Unit/g and 1.70 Unit/g and 0.34 Unit/g and 0.75 Unit/g and 0.74 Unit/g and 0.63 Unit/g and 0.73 Unit/g and 1.27 Unit/g
MPO, p vs CTR ([1]; 0.03% topical formulation): < 0.01
MPO activity in iris-ciliary body, Mean ([1]; 0.03% topical formulation): 0.906 MPO Unit/g
Pupillary diameter T1: −180 min ([2]; 0.03% topical formulation): 5.0 mm (2×) and 7.0 mm and 6.0 mm (4×) and 5.5 mm
Pupillary diameter T2: −5 min ([2]; 0.03% topical formulation): 6.0 mm (3×) and 6.5 mm (3×) and 7.0 mm and 5.5 mm
Pupillary diameter T3: +115 min ([2]; 0.03% topical formulation): 4.0 mm and 3.5 mm and 5.5 mm (2×) and 5.0 mm (2×) and 4.5 mm and 6.0 mm
Pupillary diameter Δ(T3 − T1) ([2]; 0.03% topical formulation): −1.0 mm (3×) and −1.5 mm (3×) and 0.0 mm (2×)
Protein level in aqueous humor, Mean ([3]; 0.03% topical formulation): 20.910 mg/mL
Protein level in aqueous humor ([3]; 0.03% topical formulation): 20.78 mg/mL and 28.80 mg/mL and 23.41 mg/mL and 20.21 mg/mL and 17.53 mg/mL and 15.12 mg/mL and 20.52 mg/mL
Clinical Score −5 min ([4]; 0.03% topical formulation): 0
Clinical Score +115 min ([4]; 0.03% topical formulation): 2
Percentage of eyes with clinical score 2 ([4]; 0.03% topical formulation, +115 min): 100%
Clinical Score −180 min ([4]; 0.03% topical formulation): 0
Percentage of eyes with clinical score 0 ([4]; 0.03% topical formulation, −5 min): 100%
Percentage of eyes with clinical score 0 ([4]; 0.03% topical formulation, −180 min (basal)): 100%
PMN numbers in aqueous humor ([5]; 0.03% topical formulation): 50 number/μl and 40 number/μl (2×) and 20 number/μl (2×) and 10 number/μl and 30 number/μl
PGE2 level in aqueous humor, Mean ([6]; 0.03% topical formulation): 1.189 ng/mL
PGE2 level in aqueous humor ([6]; 0.03% topical formulation): 1.04 ng/ml and 0.75 ng/ml and 0.85 ng/ml and 1.11 ng/ml and 2.11 ng/ml (2×) and 0.93 ng/ml and 0.61 ng/ml

CCOC(=O)O[C@]1(C(=O)OCCl)CC[C@H]2[C@@H]3CCC4=CC(=O)C=C[C@]4(C)[C@H]3[C@@H](O)C[C@@]21C [LE, loteprednol etabonate, reference compound]
MPO Unit/g ([1]; 0.5% LE): 0.30 Unit/g and 0.51 Unit/g and 0.81 Unit/g and 0.60 Unit/g and 0.73 Unit/g and 1.01 Unit/g
MPO activity in iris-ciliary body, Mean ([1]; 0.5% topical formulation): 0.661 MPO Unit/g
Pupillary diameter T1: −180 min ([2]; 0.5% topical formulation): 6.0 mm (3×) and 6.5 mm (5×)
Pupillary diameter T2: −5 min ([2]; 0.5% topical formulation): 6.0 mm (3×) and 6.5 mm (5×)
Pupillary diameter T3: +115 min ([2]; 0.5% topical formulation): 4.5 mm and 5.0 mm (2×) and 5.5 mm (2×) and 6.0 mm (3×)
Pupillary diameter Δ(T3 − T1) ([2]; 0.5% topical formulation): −1.5 mm (2×) and −1.0 mm (3×) and 0.0 mm and −0.5 mm (2×)
Protein level in aqueous humor, Mean ([3]; 0.5% topical formulation): 33.905 mg/mL
Protein level in aqueous humor ([3]; 0.5% topical formulation): 36.14 mg/mL and 39.10 mg/mL and 34.69 mg/mL and 26.10 mg/mL and 26.30 mg/mL and 28.16 mg/mL and 40.90 mg/mL and 39.85 mg/mL
Clinical Score −5 min ([4]; 0.5% topical formulation): 0
Clinical Score +115 min ([4]; 0.5% topical formulation): 2 (2×) and 1 (6×)
Percentage of eyes with clinical score 1 [4, 7]: 75%
Percentage of eyes with clinical score 2 [4, 7]: 25%
Clinical score, p versus CTR ([4]; 0.5% topical formulation, Kruskal-Wallis, Dunn): < 0.05
Clinical Score −180 min ([4]; 0.5% topical formulation): 0
Percentage of eyes with clinical score 0 ([4]; 0.5% topical formulation, −5 min): 100%
Percentage of eyes with clinical score 0 ([4]; 0.5% topical formulation, −180 min (basal)): 100%
PMN numbers in aqueous humor, Mean ([5]; 0.5% topical formulation, group mean): 28.333 number/μl
PMN numbers in aqueous humor ([5]; 0.5% topical formulation): 40 number/μl (2×) and 20 number/μl (3×) and 30 number/μl
PGE2 level in aqueous humor, Mean ([6]; 0.5% topical formulation): 0.672 ng/mL
PGE2 level in aqueous humor ([6]; 0.5% topical formulation): ^2N/D and 0.23 ng/ml and 0.68 ng/ml and 1.10 ng/ml
